Active and inactive are the calls of the source. The calls are words filed in the database; no cut-off is given here.
What was measured:
Mus musculus [1] = assay: Compound was administered subcutaneously and was evaluated for opioid agonist activity by antinociceptive hotplate (HP) assay in mice; I denotes Inactive at 30 mg/kg; type: functional, organism-based; design: dose 30 mg/kg
Mus musculus [2] = assay: Compound was administered subcutaneously and was evaluated for opioid agonist activity by antinociceptive tail-flick (TF) assay in mice; I denotes Inactive at 30 mg/kg; type: functional, organism-based; design: dose 30 mg/kg
Mus musculus [3] = assay: Compound was administered subcutaneously and was evaluated for opioid antagonist activity (versus morphine) by tail-flick (TF) antagonism test; I denotes Inactive at 30 mg/kg; type: functional, organism-based; design: dose 30 mg/kg
Mus musculus [4] = assay: Compound was administered subcutaneously and was evaluated for opioid agonist activity by antinociceptive p-phenylquinone-writhing (PPQ) assay in mice; I denotes Inactive at 30 mg/kg; type: functional, organism-based; design: dose 30 mg/kg
Mus musculus [5] = assay: Compound was administered subcutaneously and was evaluated for opioid agonist activity by antinociceptive tail-flick (TF) assay in mice; type: functional
Mus musculus [6] = assay: Compound was administered subcutaneously and was evaluated for opioid agonist activity by antinociceptive hotplate (HP) assay in mice; type: functional
Mus musculus [7] = assay: Compound was administered subcutaneously and was evaluated for opioid agonist activity by antinociceptive p-phenylquinone-writhing (PPQ) assay in mice; type: functional
Mus musculus [8] = assay: Compound was administered subcutaneously and was evaluated for opioid antagonist activity (versus morphine) by tail-flick (TF) antagonism test; type: functional
Mus musculus [9] = assay: Compound was administered subcutaneously and was evaluated for opioid agonist activity by antinociceptive hotplate (HP) assay in mice.; type: functional; settings: sc
Mus musculus [10] = assay: Compound was administered subcutaneously and was evaluated for opioid antagonist activity (versus morphine) by tail-flick (TF) antagonism test.; type: functional
Mus musculus [11] = assay: Compound was administered subcutaneously and was evaluated for opioid agonist activity by antinociceptive hotplate (HP) assay in mice,; type: functional; settings: sc
Mus musculus [12] = assay: Compound was administered subcutaneously and was evaluated for opioid agonist activity by antinociceptive p-phenylquinone-writhing (PPQ) assay in mice,; type: functional; settings: sc
Mus musculus [13] = assay: Compound was administered subcutaneously and was evaluated for opioid agonist activity by antinociceptive tail-flick (TF) assay in mice.; type: functional; settings: sc
[14] = Mus musculus, sc, read-out: ED50

COc1cccc([C@@]23CCC[C@H]([C@H]2C)N(C)CC3)c1
ED50 (Mus musculus [1]): inactive
ED50 (Mus musculus [2]): inactive
ED50 (Mus musculus [3]): inactive
ED50 (Mus musculus [4]): inactive

Br.CN1CC[C@]2(c3cccc(O)c3)CCC[C@@H]1C2 (stereo in doubt; (+))
ED50 (Mus musculus [5]): 1.1 mg/kg
ED50 (Mus musculus [6]): 0.4 mg/kg
ED50 (Mus musculus [7]; [14]): 0.5 mg/kg

CN1CC[C@]2(c3cccc(O)c3)CCC[C@@H]1C2 (stereo in doubt; (+))
AD50 (Mus musculus [3]): inactive

Br.CN1CC[C@]2(c3cccc(O)c3)CCC[C@@H]1C2 (stereo in doubt; (-))
ED50 (Mus musculus [5]): 5.4 mg/kg
ED50 (Mus musculus [6]): 1.7 mg/kg
ED50 (Mus musculus [7]): 0.9 mg/kg

CN1CC[C@]2(c3cccc(O)c3)CCC[C@@H]1C2 (stereo in doubt; (-))
AD50 (Mus musculus [3]): inactive

C[C@@H]1[C@H]2CCC[C@@]1(c1cccc(O)c1)CCN2C.Cl (stereo in doubt; form 1)
AD50 (Mus musculus [8]): 4.5 mg/kg

C[C@@H]1[C@H]2CCC[C@@]1(c1cccc(O)c1)CCN2C (stereo in doubt; form 1)
ED50 (Mus musculus [1]): inactive
ED50 (Mus musculus [2]): inactive
ED50 (Mus musculus [4]): inactive

C[C@@H]1[C@H]2CCC[C@@]1(c1cccc(O)c1)CCN2C.Cl (stereo in doubt; form 2)
ED50 (Mus musculus [6]; [14]): 10 mg/kg
ED50 (Mus musculus [7]; [14]): 1.9 mg/kg

C[C@@H]1[C@H]2CCC[C@@]1(c1cccc(O)c1)CCN2C (stereo in doubt; form 2)
ED50 (Mus musculus [2]): inactive
AD50 (Mus musculus [3]): inactive

C[C@@H]1[C@H]2CCC[C@@]1(c1cccc(O)c1)CCN2C.Cl (stereo in doubt; form 3)
ED50 (Mus musculus [9]): 9.3 mg/kg
AD50 (Mus musculus [10]): 5 mg/kg

C[C@@H]1[C@H]2CCC[C@@]1(c1cccc(O)c1)CCN2C (stereo in doubt; form 3)
ED50 (Mus musculus [2]): inactive
ED50 (Mus musculus [4]): inactive

COc1ccc2c3c1O[C@H]1[C@@H](O)C=C[C@H]4[C@@H](C2)N(C)CC[C@@]341 [CODEINE]
ED50 (Mus musculus [11]): 6.8 mg/kg
ED50 (Mus musculus [12]): 1.4 mg/kg
ED50 (Mus musculus [13]): 14.5 mg/kg
AD50 (Mus musculus [3]): inactive

CN1CC[C@]23c4c5ccc(O)c4O[C@H]2[C@@H](O)C=C[C@H]3[C@H]1C5 [MORPHINE]
ED50 (Mus musculus [12]): 0.2 mg/kg
AD50 (Mus musculus [3]): inactive

C=CCN1CC[C@]23c4c5ccc(O)c4O[C@H]2[C@@H](O)C=C[C@H]3[C@H]1C5 [NALORPHINE]
ED50 (Mus musculus [2]): inactive
AD50 (Mus musculus [10]): 2.6 mg/kg
ED50 (Mus musculus [7]; [14]): 0.6 mg/kg

From ChEMBL document CHEMBL1122639, “Racemic and optically active 2,9-dimethyl-5-(m-hydroxyphenyl)morphans and pharmacological comparison with the 9-demethyl homologues” (1984)
